This is an account of results in patent US6242437A, “Cephem derivatives” (Meiji Seika Kaisha, Ltd., priority 1996, dated 2001).

Holding throughout (experiment): Minimum inhibitory concentration, two-fold dilution method
Common to all, as to assay type: cell-based

One assay relates to P. aeruginosa GN10362. Conditions: Pseudomonas aeruginosa, 10^6 CFU/ml, 35° C., 18 to 20 hr. On the procedure: (§1) The antibacterial activity of the compounds according to the present invention was assayed in terms of the minimum inhibitory concentration, for various bacteria, measured by the conventional two-fold dilution method described in, for example, CHEMOTHERAPY, Vol. 29, No. 1, 76-79 (1981). The measurement was carried out in the following manner: 10^6 CFU/ml of a bacterium to be tested was inoculated on a Medium N for disc susceptibility test (manufactured by Nissui Pharmaceutical Co., Ltd.) and cultivated at 35° C. for 18 to 20 hr.
(§2) The test compounds were the compounds prepared in Examples 4 and 5, Cefozopran (CZOP, control 1), Cefpirome (CPR, control 2), the compound prepared in Example 66 (control 3) described in WO 95/07912.

The next assay relates to S. marcescens No. 1. The settings on record: Serratia marcescens, 10^6 CFU/ml, 35° C., 18 to 20 hr. As to the method: as §1, §2
In a further assay the test system is S. pneumoniae PRC9. The settings on record: Streptococcus pneumoniae; S. pneumoniae PRC9, penicillin-resistant (PRSP); 10^6 CFU/ml, 35° C., 18 to 20 hr. On the procedure:
as §1, §2

A further assay deals with C. freundii GN346/16. Conditions: Citrobacter freundii, 10^6 CFU/ml, 35° C., 18 to 20 hr. On the procedure: as §1, §2
The subject of the next assay is P. aeruginosa PA01. The settings on record: Pseudomonas aeruginosa; P. aeruginosa PA01, Imipenem- and Aztreonam-resistant; 10^6 CFU/ml, 35° C., 18 to 20 hr. On the procedure: as §1, §2
In another assay the test system is S. aureus 209P JC-1. Conditions: Staphylococcus aureus, 10^6 CFU/ml, 35° C., 18 to 20 hr. As to the method:
as §1, §2

A further assay deals with K. pneumoniae PCI602. Conditions: Klebsiella pneumoniae, 10^6 CFU/ml, 35° C., 18 to 20 hr. As to the method:
as §1, §2

A further assay has as its system M. morganii 1510/S-1. The settings on record: Morganella morganii, 1510/S1, 10^6 CFU/ml, 35° C., 18 to 20 hr. On the procedure: as §1, §2
The subject of a further assay is E. cloacae G-0008. Conditions: Enterobacter cloacae, G0008, 10^6 CFU/ml, 35° C., 18 to 20 hr. As to the method: as §1, §2
Another assay has as its system P. aeruginosa E-2. Conditions: Pseudomonas aeruginosa, E2, 10^6 CFU/ml, 35° C., 18 to 20 hr. As to the method: as §1, §2
The test system of the next assay is E. coli NIHJ JC-2. The settings on record: Escherichia coli, NIHJJC2, 10^6 CFU/ml, 35° C., 18 to 20 hr. As to the method: as §1, §2
In another assay the test system is S. pneumoniae IP692. Conditions: Streptococcus pneumoniae, 10^6 CFU/ml, 35° C., 18 to 20 hr. On the procedure: as §1, §2
The subject of another assay is S. aureus 126. Conditions: Staphylococcus aureus; S. aureus 126, methicilline-resistant (MRSA); 10^6 CFU/ml, 35° C., 18 to 20 hr. On the procedure: as §1, §2
The next assay relates to S. epidermidis ATCC14990. The settings on record: Staphylococcus epidermidis, 10^6 CFU/ml, 35° C., 18 to 20 hr. As to the method:
as §1, §2

The subject of the next assay is S. pneumoniae JPR9. The settings on record: Streptococcus pneumoniae; S. pneumoniae JPR9, penicillin-resistant (PRSP); 10^6 CFU/ml, 35° C., 18 to 20 hr. On the procedure: as §1, §2
A further assay concerns S. pneumoniae JPR20. The settings on record: Streptococcus pneumoniae; S. pneumoniae JPR20, penicillin-resistant (PRSP); 10^6 CFU/ml, 35° C., 18 to 20 hr. As to the method: as §1, §2

≈ marks a conversion by molar mass, not a printed value. Where a name gives a salt, the structure may show the parent alone. A value given as a limit tells only on which side of the number the result lay.

What is called MIC is the lowest concentration that inhibits growth of the organism. High values mean a need for much substance, low ones inhibition by little substance. With `CO/N=C(\C(=O)N[C@@H]1C(=O)N2C(C(=O)[O-])=C(C[n+]3ccn4ncccc43)CS[C@H]12)c1nsc(N)n1` [Control 1, Cefozopran, reference compound], the minimal inhibitory concentration (MIC) worked out at 0.78 µg/mL (≈ 1.51 µM) with P. aeruginosa GN10362; 0.1 µg/mL (≈ 0.194 µM) against S. marcescens No. 1; 1.56 µg/mL (≈ 3.03 µM) in the assay on S. pneumoniae PRC9; 0.05 µg/mL (≈ 0.097 µM) with C. freundii GN346/16; 12.5 µg/mL (≈ 24.2 µM) in the assay with P. aeruginosa PA01; 0.39 µg/mL (≈ 0.756 µM) with S. aureus 209P JC-1. The minimum inhibitory concentration (MIC) was 0.1 µg/mL (≈ 0.194 µM) in the assay with K. pneumoniae PCI602; 0.1 µg/mL (≈ 0.194 µM) in the assay on M. morganii 1510/S-1; 0.1 µg/mL (≈ 0.194 µM) in the assay with E. cloacae G-0008; 0.78 µg/mL (≈ 1.51 µM) against P. aeruginosa E-2; 0.05 µg/mL (≈ 0.097 µM) against E. coli NIHJ JC-2; 0.05 µg/mL (≈ 0.097 µM) in the assay with S. pneumoniae IP692. The minimal inhibitory concentration (MIC) against S. aureus 126 was 50 µg/mL (≈ 97 µM); against S. epidermidis ATCC14990 it was 0.78 µg/mL (≈ 1.51 µM).
For `CO/N=C(\C(=O)N[C@@H]1C(=O)N2C(C(=O)[O-])=C(C[n+]3cccc4c3CCC4)CS[C@H]12)c1csc(N)n1` [Control 2, Cefpirome, reference compound], the minimal inhibitory concentration (MIC) against P. aeruginosa GN10362 is 3.13 µg/mL (≈ 6.08 µM); in the assay with S. marcescens No. 1, at most 0.025 µg/mL; in the assay with S. pneumoniae PRC9, 0.78 µg/mL (≈ 1.52 µM); against C. freundii GN346/16, 0.05 µg/mL (≈ 0.0972 µM); with P. aeruginosa PA01 it was 25 µg/mL (≈ 48.6 µM); in the assay on S. aureus 209P JC-1 it was 0.2 µg/mL (≈ 0.389 µM). For the same molecule, the MIC is 0.05 µg/mL (≈ 0.0972 µM) with K. pneumoniae PCI602; at most 0.025 µg/mL against M. morganii 1510/S-1; 0.05 µg/mL (≈ 0.0972 µM) in the assay with E. cloacae G-0008; 3.13 µg/mL (≈ 6.08 µM) against P. aeruginosa E-2; 0.05 µg/mL (≈ 0.0972 µM) with E. coli NIHJ JC-2; at most 0.025 µg/mL in the assay with S. pneumoniae IP692. In addition, the minimum inhibitory concentration (MIC) turned out to be 50 µg/mL (≈ 97.2 µM) against S. aureus 126 and 0.39 µg/mL (≈ 0.758 µM) with S. epidermidis ATCC14990.
With `Nc1nc(/C(=N/OCF)C(=O)N[C@@H]2C(=O)N3C(C(=O)[O-])=C(C[n+]4cc5sccn5c4CNS(N)(=O)=O)CS[C@H]23)ns1` [Ex. 4, (6R,7R)-7-[(Z)-2-(5-amino-1,2,4-thiadiazol-3-yl)-2-(fluoromethoxyimino)acetamido]-3-[5-sulfamidomethylimidazo[5,1-b]thiazolium-6-yl]methyl-3-cephem-4-carboxylate (inner salt)], the MIC in the assay with P. aeruginosa GN10362 is 0.39 µg/mL; with S. marcescens No. 1, 0.05 µg/mL; with S. pneumoniae PRC9, 0.39 µg/mL; in the assay with C. freundii GN346/16, at most 0.025 µg/mL; against P. aeruginosa PA01 it was 3.13 µg/mL; with S. aureus 209P JC-1 it was 0.78 µg/mL. The MIC was at most 0.025 µg/mL in the assay with K. pneumoniae PCI602; at most 0.025 µg/mL in the assay on M. morganii 1510/S-1; 0.2 µg/mL against S. pneumoniae JPR9; 0.05 µg/mL in the assay with E. cloacae G-0008; 0.78 µg/mL in the assay with P. aeruginosa E-2; at most 0.025 µg/mL against E. coli NIHJ JC-2. For the same molecule, the minimal inhibitory concentration (MIC) with S. pneumoniae IP692 is at most 0.025 µg/mL; in the assay with S. aureus 126 it was 6.25 µg/mL; against S. epidermidis ATCC14990 it was 0.78 µg/mL; against S. pneumoniae JPR20, 0.05 µg/mL.
Turning to `CO/N=C(\C(=O)N[C@@H]1C(=O)N2C(C(=O)[O-])=C(C[n+]3cc4sccn4c3CNS(N)(=O)=O)CS[C@H]12)c1nsc(N)n1` [Ex. 5, (6R,7R)-7-[(Z)-2-(5-Amino-1,2,4-thiadiazol-3-yl)-2-(methoxyimino)acetamido]-3-[5-sulfamidomethylimidazo[5,1-b]thiazolium-6-yl]methyl-3-cephem-4-carboxylate (inner salt)], the minimum inhibitory concentration (MIC) against P. aeruginosa GN10362 was determined as 0.78 µg/mL; against S. marcescens No. 1, 0.1 µg/mL; in the assay with S. pneumoniae PRC9 it was 0.39 µg/mL; in the assay on C. freundii GN346/16, 0.05 µg/mL; in the assay with P. aeruginosa PA01, 3.13 µg/mL; against S. aureus 209P JC-1, 0.78 µg/mL. Moreover, the minimum inhibitory concentration (MIC) against K. pneumoniae PCI602 was 0.05 µg/mL; against M. morganii 1510/S-1 it was 0.05 µg/mL; in the assay with E. cloacae G-0008, 0.1 µg/mL; in the assay on P. aeruginosa E-2 it was 0.78 µg/mL; against E. coli NIHJ JC-2, 0.05 µg/mL; against S. pneumoniae IP692, at most 0.025 µg/mL. The figures for the minimum inhibitory concentration (MIC) against S. aureus 126 and against S. epidermidis ATCC14990 were 6.25 µg/mL and 0.78 µg/mL, respectively.
